Laboratory results: US20230220410A1, “PLANTS TOLERANT TO BROAD RANGE OF PATHOGENS” (RAMOT AT TEL-AVIV UNIVERSITY LTD., priority 2020, published 2023)
“Also recorded” adds a separate entry of the source. Where two headings read alike, the source gives them in different places.

Assays:
[1] = test system: I3CT1^8098 transgenic line (S30 overexpressing); test: Root growth-rate inhibition by I3C, transgenic line I3CT1^8098; type: in vivo, Arabidopsis thaliana; conditions: I3CT1^8098 (printed I3CR1^8098)
Excerpt: (§1) The Arabidopsis strains used were all in the Columbia-0 (Col-0) background. The gain of function lines psx00478 and psx08098 containing pBIG2113SF binary vector, expressing a single cDNA under 35S promoter, were ordered from FOX library (Takanari I. et al., 2006. ibid). Transgenic lines were generated using pBINPLUS (van Engelen F A et al., 1995. Transgenic Research 4, 288-290), in which AT2G19750 gene was cloned downstream of the 35S promoter, and transformed to WT Col-0 via Agrobacterium cv3101 mediated transformation. The presence of the transgene was confirmed by PCR with specific primers for S30. Seeds were cultivated in Petri plates using medium containing 0.8% agar, half-strength Murashige and Skoog salts (MS), and 1% sucrose, pH 5.7. The Petri plates were placed in chambers at 22° C. under light/dark conditions of 16 h white light at 75 mol m^2 sec^−1 and 8 h darkness, at 55% relative humidity. […]
(§2) To calculate the percentage of growth inhibition, seeds were germinated on MS containing the following concentrations of I3C: 0, 50, 100, 200, 300, 400, 500 and 750 μM. The root length of the seedlings was measured at days 3, 4, 5, 7 and 10. […]
(§3) To calculate the degree of tolerance to I3C, growth rates of WT and the I3CT1 strains were determined for increasing concentrations of I3C. Root length was measured at several time points over increasing I3C concentrations (FIG. 3). […]

[2] = test system: I3CT1^2 transgenic line (S30 overexpressing); test: Root growth-rate inhibition by I3C, transgenic line I3CT1^2; type: in vivo, Arabidopsis thaliana; conditions: I3CT1^2, root growth rate
Excerpt: as §1, §2, §3

WT (Col-0) Arabidopsis [3] = test: Root length on I3C, IAA and mixtures (auxin antagonism), WT; type: in vivo, Arabidopsis thaliana
Description: I3CT1^2, I3CT1^8098 (FIG. 10A, designated as ICT1) and WT (FIG. 10B) plants were grown on three concentrations of I3C (50, 200, 500 μM), three concentrations of IAA (50, 200, 500 nM) and mixtures between the two. Root length was measured, and the mean root length of the transgenic lines I3CT1^2, I3CT1^8098 was calculated (presented as “I3CT1”). Three-way ANOVA was performed after SQRT transformation to obtain a normal distribution. FIG. 10C: The model of inhibition.
It was previously shown that I3C acts as an auxin antagonist on TIR1 (Katz et al., 2015b, ibid).

WT (Col-0) Arabidopsis [4] = test: Root elongation / root growth-rate inhibition on MS with the substance, wild type; type: in vivo, Arabidopsis thaliana
Excerpt: The Arabidopsis strains used were all in the Columbia-0 (Col-0) background. The gain of function lines psx00478 and psx08098 containing pBIG2113SF binary vector, expressing a single cDNA under 35S promoter, were ordered from FOX library (Takanari I. et al., 2006. ibid). Transgenic lines were generated using pBINPLUS (van Engelen F A et al., 1995. Transgenic Research 4, 288-290), in which AT2G19750 gene was cloned downstream of the 35S promoter, and transformed to WT Col-0 via Agrobacterium cv3101 mediated transformation. The presence of the transgene was confirmed by PCR with specific primers for S30. Seeds were cultivated in Petri plates using medium containing 0.8% agar, half-strength Murashige and Skoog salts (MS), and 1% sucrose, pH 5.7. The Petri plates were placed in chambers at 22° C. under light/dark conditions of 16 h white light at 75 mol m^2 sec^−1 and 8 h darkness, at 55% relative humidity. For root phenotype experiments, plates were placed vertically in the chambers.
To calculate the percentage of growth inhibition, seeds were germinated on MS containing the following concentrations of I3C: 0, 50, 100, 200, 300, 400, 500 and 750 μM. The root length of the seedlings was measured at days 3, 4, 5, 7 and 10. To calculate the percentage of growth inhibition, the slope of the regression lines for each concentration was used in the next equation: […]
To calculate the degree of tolerance to I3C, growth rates of WT and the I3CT1 strains were determined for increasing concentrations of I3C. Root length was measured at several time points over increasing I3C concentrations (FIG. 3). The growth rate of the WT and the I3CT1 transgenic lines was similar on MS; however, a growth rate of 3 and 2.3 times faster was observed on 400 μM I3C for the transgenic lines I3CT1^2 and I3CT1^8098 respectively. […] However, the growth rate of the WT was inhibited by 50% at about 50 μM while the growth rate of the I3CT1^2 and I3CR1^8098 transgenic lines was inhibited by 50% only when the I3C concentration was 300 μM and 200 μM respectively.
(§4) To test if overexpression of S30 causes tolerance specifically to I3C, or rather causes general tolerance to external chemical stress, root growth was tested with the addition of three groups of molecules to the growth medium: two subcategories of indole derivates: 1. Breakdown products of indol-3-acetaldoxime such as I3C, indol-3-acetic acid (IAA), and 3—Indoleacetonitril (IAN); and 2. breakdown products of I3C such as 3, 3Diindolylmethane (DIM), indole-3-carboxaldehyde (I3xA), and methyl Indole 3-carboxylate (MI3Cx). The third group contains benzoxazinoids: 2-Benzoxazolinon (BOA) and 6-Methoxy-2-benzoxazolinone (mBOA). Benzoxanoids are chemically unrelated to I3C, but with similar function of plant defense in gramineae (FIG. 4A). WT and the I3CT1 transgenic strains were assayed for root growth on 50% and 90% inhibition concentrations (IC) of the above molecules (Table 3).

WT (Col-0) Arabidopsis [5] = conditions: 400 μM I3C; cited from earlier work
I3CT1 transgenic strains = test: Root growth of I3CT1 on 50% and 90% inhibition concentrations of plant defense molecules; type: in vivo, Arabidopsis thaliana; conditions: FIG. 4B
Description: FIG. 4A: Plant defense molecules assayed: Breakdown products of indol-3-acetaldoxime (upper left panel), Breakdown products of I3C (lower panel), and benzoxazinoids (right panel). FIG. 4B: I3CT1 and WT were grown on 50% and 90% inhibition concentrations of the chemicals shown in μM. Data represent mean±SE.
as §4

[6] = read-out: I3C concentration at which growth rate was inhibited by 50%
[7] = root elongation, Table 3, read-out: substance concentration inhibiting root elongation by 50%
[8] = Arabidopsis thaliana, root elongation, Table 3, read-out: substance concentration inhibiting root elongation by 50%

Row | Structure (SMILES) | substance concentration inhibiting root elongation by 90% (WT (Col-0) Arabidopsis [4]; root elongation, Table 3) | IC50 (WT (Col-0) Arabidopsis [4]; [7]) | tolerance of I3CT1 to the chemical (root growth) (I3CT1 transgenic strains) | IC50 (WT (Col-0) Arabidopsis [4]; [8]) | also measured
1 | OCc1c[nH]c2ccccc12 [I3C, Indole 3-carbinol] | 400 µM | 100 µM | tolerance of the I3CT1 line was limited to three chemicals | – | I3C concentration of 90% inhibition [1]: 500 µM; IC50 [1, 6]: 200 µM; I3C concentration of 90% inhibition [2]: 750 µM; IC50 [2, 6]: 300 µM; inhibition of root elongation by I3C itself (WT (Col-0) Arabidopsis [3]; 500 μM I3C): 95%; rescue of IAA root-elongation inhibition by I3C (WT (Col-0) Arabidopsis [3]; 50 and 200 μM I3C added to IAA, WT): rescues the IAA phenotype; I3C concentration of 90% inhibition (WT (Col-0) Arabidopsis [4]; WT, root growth rate): 400 µM; IC50 (WT (Col-0) Arabidopsis [4]; WT, root growth rate, read-out: I3C concentration at which growth rate was inhibited by 50%): ~50 µM; I3C concentration of maximum inhibition (WT (Col-0) Arabidopsis [4]; all strains (WT and I3CT1 lines)): 750 µM; inhibition of root elongation (WT (Col-0) Arabidopsis [5]): 95%
2 | O=C(O)Cc1c[nH]c2ccccc12 [IAA, Indole-3-acetic acid] | 200 µM | – | tolerance of the I3CT1 line was limited to three chemicals; also recorded: slight tolerance | 50 µM | –
3 | c1ccc2c(Cc3c[nH]c4ccccc34)c[nH]c2c1 [DIM, 3,3′-Diindolylmethane] | 200 µM | – | tolerance of the I3CT1 line was limited to three chemicals | 60 µM | –
4 | O=c1[nH]c2ccccc2o1 [BOA, 2-Benzoxazolinon] | 400 µM | – | – | – | IC50 (WT (Col-0) Arabidopsis [4]; Arabidopsis thaliana, read-out: substance concentration inhibiting root elongation by 50%): 50 µM
5 | COc1ccc2[nH]c(=O)oc2c1 [mBOA, 6-Methoxy-2-benzoxazolinone] | 400 µM | – | – | 50 µM | –
6 | COC(=O)c1c[nH]c2ccccc12 [MI3Cx, Methyl Indole 3-Carboxylate] | 375 µM | – | did not exhibit any pronounced tolerance | 200 µM | –
7 | N#CCc1c[nH]c2ccccc12 [IAN, Indole 3-acetonitril] | 160 µM | 50 µM | did not exhibit any pronounced tolerance | – | –
8 | O=Cc1c[nH]c2ccccc12 [I3xA, Indole 3-Carboxalldehyde] | 300 µM | 140 µM | did not exhibit any pronounced tolerance | – | –
